Experimental data reported in patent US11780823B2, “Indazole-3-carboxamides and their use as Wnt/β-catenin signaling pathway inhibitors” (BioSplice Therapeutics, Inc., priority 2011, dated 2023).

System: Wnt activity (wnt-responsive SP5 promoter luciferase reporter in SW480 cells)
Assay: Wnt reporter screening assay: SP5 promoter-driven firefly luciferase in SW480 cells
Assay type: cell-based
Details: Homo sapiens; SW480 colon cancer cells with SP5 promoter luciferase reporter; half-log dilutions, ten micromolar top concentration; read 24-40 h after compound addition; normalized to DMSO; read-out: Wnt inhibition
Description: Another screening assay for Wnt activity is described as follows. Reporter cell lines can be generated by stably transducing cells of cancer cell lines (e.g., colon cancer) with a lentiviral construct that include a wnt-responsive promoter driving expression of the firefly luciferase gene.
Lentiviral constructs can be made in which the SP5 promoter, a promoter having eight TCF/LEF binding sites derived from the SP5 promoter, is linked upstream of the firefly luciferase gene. The lentiviral constructs can also include a hygromycin resistance gene as a selectable marker. The SP5 promoter construct can be used to transduce SW480 cells, a colon cancer cell line having a mutated APC gene that generates a truncated APC protein, leading to de-regulated accumulation of β-catenin.
Cultured SW480 cells bearing a reporter construct can be distributed at approximately 10,000 cells per well into 96 well or 384 well plates. Compounds from a small molecule compound library can then be added to the wells in half-log dilutions using a ten micromolar top concentration. A series of control wells for each cell type receive only buffer and compound solvent. Twenty-four to forty hours after the addition of compound, reporter activity for luciferase can be assayed, for example, by addition of the BrightGlo luminescence reagent (Promega) and the Victor3 plate reader (Perkin Elmer). Readings can be normalized to DMSO only treated cells, and normalized activities can then be used in the IC50 calculations.

## O=C(Nc1ccc2c(c1)OCCO2)c1n[nH]c2ccc(-c3cncc(CN4CCCCC4)c3)cc12 [Compound 79, N-(2,3-Dihydrobenzo[b][1,4]dioxin-6-yl)-5-(5-(piperidin-1-ylmethyl)pyridin-3-yl)-1H-indazole-3-carboxamide]
  IC50: 123 nM

## O=C(Nc1cncc(Cc2ccccc2)c1)c1n[nH]c2ccc(-c3cncc(CN4CCCCC4)c3)cc12 [Compound 80, N-(5-Benzylpyridin-3-yl)-5-(5-(piperidin-1-ylmethyl)pyridin-3-yl)-1H-indazole-3-carboxamide]
  IC50: 158 nM

## O=C(Nc1cnccn1)c1n[nH]c2ccc(-c3cncc(CN4CCCCC4)c3)cc12 [Compound 81, 5-(5-(Piperidin-1-ylmethyl)pyridin-3-yl)-N-(pyrazin-2-yl)-1H-indazole-3-carboxamide]
  IC50: 77 to 142 nM

## O=C(Nc1ccccc1)c1n[nH]c2ccc(-c3cncc(CN4CCCCC4)c3)cc12 [Compound 82, N-Phenyl-5-(5-(piperidin-1-ylmethyl)pyridin-3-yl)-1H-indazole-3-carboxamide]
  IC50: 143 to 188 nM

## CN1CCN(C(=O)c2n[nH]c3ccc(-c4cncc(CN5CCCCC5)c4)cc23)CC1 [Compound 83, (4-Methylpiperazin-1-yl)(5-(5-(piperidin-1-ylmethyl)pyridin-3-yl)-1H-indazol-3-yl)methanone]
  IC50: 2500 to 3400 nM

## C[C@@H]1CCC[C@H](C)N1Cc1cncc(-c2ccc3[nH]nc(C(=O)Nc4cccnc4)c3c2)c1 [Compound 84, 5-(5-(((2R,6S)-2,6-Dimethylpiperidin-1-yl)methyl)pyridin-3-yl)-N-(pyridin-3-yl)-1H-indazole-3-carboxamide]
  IC50: 822 to 898 nM

## CN(C)Cc1cncc(NC(=O)c2n[nH]c3ccc(-c4cncc(CN5CCCCC5)c4)cc23)c1 [Compound 86, N-(5-((Dimethylamino)methyl)pyridin-3-yl)-5-(5-(piperidin-1-ylmethyl)pyridin-3-yl)-1H-indazole-3-carboxamide]
  IC50: 66 nM

## CN1CCC(NC(=O)c2n[nH]c3ccc(-c4cncc(CN5CCCCC5)c4)cc23)CC1 [Compound 87, N-(1-Methylpiperidin-4-yl)-5-(5-(piperidin-1-ylmethyl)pyridin-3-yl)-1H-indazole-3-carboxamide]
  IC50: 2440 nM

## CN(C)Cc1cncc(NC(=O)c2n[nH]c3ccc(-c4cncc(CN5CCCC5)c4)cc23)c1 [Compound 106, N-(5-((Dimethylamino)methyl)pyridin-3-yl)-5-(5-(pyrrolidin-1-ylmethyl)pyridin-3-yl)-1H-indazole-3-carboxamide]
  IC50: 33 nM

## CN1CCN(Cc2cncc(NC(=O)c3n[nH]c4ccc(-c5cncc(CN6CCCCC6)c5)cc34)c2)CC1 [Compound 124, N-(5-((4-Methylpiperazin-1-yl)methyl)pyridin-3-yl)-5-(5-(piperidin-1-ylmethyl)pyridin-3-yl)-1H-indazole-3-carboxamide]
  IC50: 67 nM

## O=C(Nc1ccc(N2CCCCC2)nc1)c1n[nH]c2ccc(-c3cncc(CN4CCCCC4)c3)cc12 [Compound 126, N-(6-(Piperidin-1-yl)pyridin-3-yl)-5-(5-(piperidin-1-ylmethyl)pyridin-3-yl)-1H-indazole-3-carboxamide]
  IC50: 22 nM

## O=C(Nc1cccc(F)c1)c1n[nH]c2ccc(-c3cncc(CN4CCCCC4)c3)cc12 [Compound 162, N-(3-Fluorophenyl)-5-(5-(piperidin-1-ylmethyl)pyridin-3-yl)-1H-indazole-3-carboxamide]
  IC50: 426 nM

## O=C(NC1CCOCC1)c1n[nH]c2ccc(-c3cncc(CN4CCCCC4)c3)cc12 [Compound 163, 5-(5-(Piperidin-1-ylmethyl)pyridin-3-yl)-N-(tetrahydro-2H-pyran-4-yl)-1H-indazole-3-carboxamide]
  IC50: 15400 nM

## O=C(Nc1cncc(F)c1)c1n[nH]c2ccc(-c3cncc(CN4CCCCC4)c3)cc12 [Compound 168, N-(5-Fluoropyridin-3-yl)-5-(5-(piperidin-1-ylmethyl)pyridin-3-yl)-1H-indazole-3-carboxamide]
  IC50: 66 nM
